Patent US6281194A, “Cycloalkyl inhibitors of protein farnesyltransferase” (Warner-Lambert Company, priority 1999, dated 2001)
Where two headings read alike, the source gives them in different places.

Columns and labels:
[1] = target: T1, SF9 affinity purified rat farnesyl protein transferase (Rattus norvegicus, UniProt Q02293+Q04631); experiment: PFT inhibitory activity; type: biochemical
T1 construct: made in house; host or cells: Sf9 insect cells (baculovirus system, inferred from b7)
Experimental: The protein:farnesyltransferase (PFT) or farnesyl protein transferase (FPT) inhibitory activity of compounds of the present invention were assayed in HEPES buffer (pH 7.4) containing 5 mM potassium phosphate and 20 μM ZnCl2. The solution also contained 5 mM DTT (dithiothreitol), 5 mM MgCl2 and 0.1% PEG 8000. Assays were performed in 96 well plates (Wallec) and employed solutions composed of varying concentrations of a compound of the present invention in 100% DMSO (dimethylsulfoxide). Upon addition of both substrates, radiolabeled farnesyl pyrophosphate ([1-^3 H], specific activity 15-30 Ci/mmol, final concentration 134 nM) and (biotinyl)-Ahe-Thr-Lys-Cys-Val-Ile-Met ([3aS[3a alpha, 4 beta, 6a alpha]-hexahydro-2-oxo-1H-thieno[3,4-d]imidazole-5-pentanoic acid]-[7-aminoheptanoic acid]-Thr-Lys-Cys-Val-Ile-Met) (Ahe is 7-aminoheptanoic acid, Thr is threonine, Lys is lysine, Cys is cysteine, Val is valine, Ile is isoleucine and Met is methionine) (final concentration 0.2 μM), the enzyme reaction was started by addition of SF9 affinity purified rat farnesyl protein transferase. After incubation at 30° C. for 30 minutes, the reaction was terminated by diluting the reaction 2.5-fold with a stop buffer containing 1.5 M magnesium acetate, 0.2 M H3 PO4, 0.5% BSA (bovine serum albumin), and strepavidin beads (Amersham) at a concentration of 1.3 mg/mL. After allowing the plate to settle for 30 minutes at room temperature, radioactivity was quantitated on a microBeta counter (Model 1450, Wallec). The assay was also carried out without 5 mM potassium phosphate.

[2] = tested on: ras farnesylation in ras-transformed cells; experiment: Gel shift assay; type: cell-based; conditions: 18-hour incubation
Experimental: Twenty-four hours after planting 2×10^6 ras-transformed cells per treatment condition, the farnesylation inhibitor is added at varying concentrations. Following an 18-hour incubation period, cells are lysed in phosphate-buffered saline containing 1% Triton X-100, 0.5% sodium deoxycholate, and 0.1% SDS (sodium dodecyl sulfate), pH 7.4 in the presence of several protease inhibitors (PMSF (phenylmethylsulfonylfluoride), antipain, leupeptin, pepstatin A, and aprotinin all at 1 μg/mL). Ras protein is immunoprecipitated from the supernatants by the addition of 3 μg v-H-ras Ab-2 (Y13-259 antibody from Oncogene Science). After overnight immunoprecipitation, 30 μL of a 50% protein G-Sepharose slurry (Pharmacia) is added followed by 45-minute incubation. Pellets are resuspended in 2× tris-glycine loading buffer (Novex) containing 5% β-mercaptoethanol and then denatured by 5 minutes boiling prior to electrophoresis on 14% Tris-glycine SDS gels. Using Western transfer techniques, proteins are transferred to nitrocellulose membranes followed by blocking in blocking buffer. Upon overnight incubation with primary antibody (pan-ras Ab-2 from Oncogene Science), an antimouse HRP (horse radish peroxidase) conjugate secondary antibody (Amersham) is employed for detection of the ras protein. Blots are developed using ECL(enhanced chemiluminescence) techniques (Amersham).

[3] = HEPES buffer pH 7.4 with 5 mM potassium phosphate, read-out: PFT Inhibitory Activity IC50 (μM) HEPES and 5 mM K3 PO4
[4] = HEPES buffer pH 7.4 without 5 mM potassium phosphate, read-out: PFT Inhibitory Activity IC50 (μM) HEPES

| Compound | IC50 [1, 3] [µM] | IC50 [1, 4] [µM] | Gel Shift (μM) M.E.D. (minimal effective dose to observe inhibition of ras farnesylation) [2] [µM] |
| --- | --- | --- | --- |
| C/C=C/CN(CC(=O)NCC1(c2ccccc2)CCC1)C(=O)[C@H](Cc1cnc[nH]1)NC(=O)OCc1ccccc1 (stereo in doubt) [Example 10, [(S)-trans]-[1-(But-2-enyl-{[(1-phenyl-cyclobutylmethyl)-carbamoyl]-methyl}-carbamoyl)-2-(3H-imidazol-4-yl)-ethyl]-carbamic Acid benzyl Ester] | 0.36 | < 0.001 | ≤ 0.05 |
| Cc1ccc(CN(CC(=O)NCC2(c3ccccc3)CCC2)C(=O)[C@H](Cc2c[nH]cn2)NC(=O)OCc2ccccc2)cc1 [Example 4, (S)-[1-((4-Methyl-benzyl)-{[(1-phenyl-cyclobutyl-methyl)-carbamoyl]-methyl}-carbamoyl)-2-(1H-imidazol-4-yl)-ethyl]-carbamic Acid Benzyl Ester] | 0.0054 | 0.26 | 0.01 |
| Cc1ccc(CN(CC(=O)NCC2(c3ccccc3)CCC2)C(=O)[C@H](Cc2c[nH]cn2)NC(=O)N(C)Cc2ccccc2)cc1 [Example 7, (S)-2-(3-Benzyl-3-methyl-ureido)-3-(1H-imidazol-4-yl)-N-(4 methyl-benyl)-N-{[(1-phenyl-cyclobutylmethy)-carbomyl]-methyl}-propionamide] | 0.003 | 0.014 | 0.01 |
| CN(Cc1ccccc1)C(=O)N[C@@H](Cc1c[nH]cn1)C(=O)N(CC(=O)NCC1(c2ccccc2)CCC1)Cc1ccc(OCc2ccccc2)cc1 [Example 8, (S)-2-(3-Benzyl-3-methyl-ureido)-N-(4-benzyloxy-benzyl)-3-(1H-imidazol-4-yl)-N-{[(1-phenyl-cyclobutylmethyl)-carbamoyl]-methyl}-propionamide] | 0.015 | 0.068 | 0.01 |
| O=C(CN(Cc1ccc(OCc2ccccc2)cc1)C(=O)[C@H](Cc1c[nH]cn1)NC(=O)OCc1ccccc1)NCC1(c2c(Cl)cccc2Cl)CCC1 [Example 9, (S)-[1-[(4-Benzyloxy-benyl)-({[1-(2,6-dichlorophenyl)-cyclobutylmethyl]-carbamoyl}-methyl)-carbamoyl]-2-(1H-imidazol-4-yl)-ethyl]-carbamic Acid benzyl Ester] | 0.18 | 7 | > 0.2 |
| CCCN(CC(=O)NCC1(c2ccccc2)CCC1)C(=O)[C@H](Cc1cnc[nH]1)NC(=O)OCc1ccccc1 [Example 11] | 0.33 | < 0.001 | ≤ 0.05 |
| N-((1S)-1-(1H-4-imidazolylmethyl)-2-oxo-2-(2-oxo-2-[(1-phenylcyclobutyl)methyl]aminoethyl)[(1R)-1-phenylethyl]aminoethyl)carbamate [Example 12] | 0.34 | 0.002 | ≤ 0.05 |
